Experimental findings from patent US10392630B2, “Plants having increased tolerance to herbicides” (BASF AGRO B.V., priority 2013, dated 2019) are described below.

Assay [1] concerns the target Alopecurus mutant PPO (ALOMY), SEQ ID NO 2 with amino acid substitution. The experiment in a line: PPO enzyme assay, dose-response (fluorescence), mutated Alopecurus PPO2. Type of assay: biochemical, Alopecurus myosuroides.
Assay [2] relates to Alopecurus wildtype PPO (ALOMY), PPO herbicide sensitive PPO2, SEQ ID NO 2. The experiment in a line: PPO enzyme assay, dose-response (fluorescence), wildtype Alopecurus PPO2. Type of assay: biochemical, Alopecurus myosuroides.
Assay [3] has as its system transgenic Arabidopsis thaliana plants. The experiment in a line: Growth inhibition of transgenic Arabidopsis in 48-well plates, tolerance factor (Table 5, FIG. 2). The conditions noted are these: growth inhibition seven to ten days after seeding. The assay is classed as in vivo.
Assay [4] relates to transgenic T0 corn events. In words: Herbicide injury of transgenic T0 corn events, greenhouse spray (Table 6a). Type of assay: in vivo, Zea mays. Also on record: key: 0 is no injury relative to an unsprayed wild type check; 9 is completely dead. The conditions noted are these: 7 days after treatment.
Assay [5] concerns transgenic soybean cv Jake cuttings. The experiment in a line: Herbicide injury of transgenic soybean cuttings from T0 plants (Table 7, FIG. 4). The assay is classed as in vivo, Glyceine max. The following applies: V2 spray, 1 week after treatment.

Values joined by “and” are separate entries in the source; they are usually repeats but may differ in a detail not shown here. Identical values can stand only once. Like-named read-outs stand apart in the source and are kept apart here. Some results are limits rather than exact numbers.

As to `O=C(O)c1cc(Oc2ccc(C(F)(F)F)cc2Cl)ccc1[N+](=O)[O-]` [ACIFLUORFEN, 5-(2-CHLORO-4-TRIFLUOROMETHYL-PHENOXY)-2-NITRO-BENZOIC ACID], the IC50 (usually the concentration needed to halve the response being measured) is not below 10000 nM in assay [1] and 1140 nM in assay [2] (Table 3b, SEQ ID NO 2, WT).
Consider `CCOC(=O)COc1ncccc1Oc1cc(-n2c(=O)cc(C(F)(F)F)n(C)c2=O)c(F)cc1Cl` [S-3100, ethyl 2-[[3-[2-chloro-4-fluoro-5-[3-methyl-2,6-dioxo-4-(trifluoromethyl)pyrimidin-1-yl]phenoxy]-2-pyridyl]oxy]acetate], for which the IC50 is 950 nM in assay [1]; 0.552 nM in assay [1] (listed as S-3101); 2.37 nM in assay [1] (listed as S-3102); 992 nM in assay [1] (listed as S-3103); 12.1 nM in assay [1] (listed as S-3104); 0.0645 nM in assay [2] (Table 3b, SEQ ID NO 2, WT).
In turn, `COC(=O)C(OC)Oc1ccccc1Oc1cc(-n2c(=O)cc(C(F)(F)F)n(C)c2=O)c(F)cc1Cl` (centres unmarked) [methyl 2-[2-[2-chloro-4-fluoro-5-[3-methyl-2,6-dioxo-4-(trifluoromethyl)pyrimidin-1-yl]phenoxy]phenoxy]-2-methoxy-acetate] showed a 50% inhibitory concentration (IC50) in assay [2] (Table 3b, SEQ ID NO 2, WT) of 0.194 nM.
Regarding `CC(C)N(C)S(=O)(=O)NC(=O)c1cc(-n2c(=O)cc(C(F)(F)F)n(C)c2=O)c(F)cc1Cl` [saflufenacil], the “TF (Tolerance Factor), relative tolerance rate (non-transgenic = 1.0)” value in assay [3] (transgenic Arabidopsis Am_PPO2_F438I) is listed as 3300; in assay [3] (transgenic Arabidopsis Am_PPO2_R137A), 1500; in assay [3] (transgenic Arabidopsis Am_PPO2_R137A_F438I) it was 950; in assay [3] (transgenic Arabidopsis Am_PPO2_R137A_F438L), 2300; in assay [3] (transgenic Arabidopsis Am_PPO2_R137A_F438M), 2500; in assay [3] (transgenic Arabidopsis Am_PPO2_R137A_F438V), 2500. The “TF (Tolerance Factor), relative tolerance rate (non-transgenic = 1.0)” value was found to be 2140 in assay [3] (transgenic Arabidopsis Am_PPO2_R137I); 2700 in assay [3] (transgenic Arabidopsis Am_PPO2_R137L_F438I); 2700 in assay [3] (transgenic Arabidopsis Am_PPO2_R137L_F438L); 3100 in assay [3] (transgenic Arabidopsis Am_PPO2_R137L_F438M); 1740 in assay [3] (transgenic Arabidopsis Am_PPO2_R137M_F438I); 1340 in assay [3] (transgenic Arabidopsis Am_PPO2_R137M_F438L). Also, the “TF (Tolerance Factor), relative tolerance rate (non-transgenic = 1.0)” value in assay [3] (transgenic Arabidopsis Am_PPO2_R137M_F438M) is on record as 1700; in assay [3] (transgenic Arabidopsis Am_PPO2_R137M_F438V) it was 1900. Also, the IC50 in assay [1] was more than 10000 nM; in assay [2] (Table 3a, PPO herbicide sensitive PPO2, SEQ ID NO 2, ALOMY) it was 211 nM. Besides, the “Herbicide injury, 0 to 9 rating scale” value came to 3 in assay [4] (T0 corn events tp-SorbiPPO2::AlomyPPO2_F431V, 75 g ai/ha + 1% (v/v) MSO at V2 stage); 7 in assay [4] (T0 corn events tp-SorbiPPO2::AlomyPPO2_R130A_F431V, 75 g ai/ha + 1% (v/v) MSO at V2 stage); 0 in assay [4] (T0 corn events tp-ZeamaPPO2::AlomyPPO2_F431V, 75 g ai/ha + 1% (v/v) MSO at V2 stage); 0 in assay [4] (T0 corn events tp-ZeamaPPO2::AlomyPPO2_R130A, 75 g ai/ha + 1% (v/v) MSO at V2 stage); 7 in assay [4] (untransformed wild type corn, 50 g ai/ha + 1% (v/v) MSO at V2 stage); 8 in assay [4] (untransformed wild type corn, 75 g ai/ha + 1% (v/v) MSO at V2 stage). In assay [4] (untransformed wild type corn, 100 g ai/ha + 1% (v/v) MSO at V2 stage), the “Herbicide injury, 0 to 9 rating scale” value was 8. Further, the Herbicide injury in assay [5] (AlomyPPO1_R138A T0 cuttings, BAS 800H 25 g ai/ha) is 6 and 9; in assay [5] (AlomyPPO1_R138A_Y420M T0 cuttings, BAS 800H 25 g ai/ha) it was 0; in assay [5] (AlomyPPO1_R138A_Y420M T0 cuttings, BAS 800H 50 g ai/ha) it was 3; in assay [5] (AlomyPPO1_R138A_Y420M T0 cuttings, BAS 800H 100 g ai/ha), 3; in assay [5] (AlomyPPO1_R138L T0 cuttings, BAS 800H 25 g ai/ha) it was 8 and 7 and 6; in assay [5] (AlomyPPO1_R138L T0 cuttings, BAS 800H 50 g ai/ha), 8 and 9 and 6 and 7. Moreover, the Herbicide injury was 8 and 9 in assay [5] (AlomyPPO1_R138L T0 cuttings, BAS 800H 100 g ai/ha); 5 and 4 and 8 in assay [5] (AlomyPPO1_Y420M T0 cuttings, BAS 800H 50 g ai/ha); 5 and 4 and 8 in assay [5] (AlomyPPO1_Y420M T0 cuttings, BAS 800H 100 g ai/ha); 3 in assay [5] (AlomyPPO2_R137A T0 cuttings, BAS 800H 25 g ai/ha); 0 in assay [5] (AlomyPPO2_R137A T0 cuttings, BAS 800H 50 g ai/ha); 2 in assay [5] (AlomyPPO2_R137A T0 cuttings, BAS 800H 100 g ai/ha). The Herbicide injury in assay [5] (AlomyPPO2_R137A_F438L T0 cuttings, BAS 800H 200 g ai/ha) was 6 and 9; in assay [5] (AlomyPPO2_R137A_F438V T0 cuttings, BAS 800H 200 g ai/ha), 4 and 3 and 6; in assay [5] (AlomyPPO2_R137L_F438I T0 cuttings, BAS 800H 100 g ai/ha) it was 9; in assay [5] (AlomyPPO2_R137L_F438I T0 cuttings, BAS 800H 200 g ai/ha), 9; in assay [5] (AlomyPPO2_R137M_F438L T0 cuttings, BAS 800H 50 g ai/ha), 4; in assay [5] (AlomyPPO2_R137M_F438L T0 cuttings, BAS 800H 100 g ai/ha), 6 and 3. Also, the Herbicide injury amounted to 9 in assay [5] (AlomyPPO2_R137M_F438M T0 cuttings, BAS 800H 50 g ai/ha); 9 in assay [5] (Wild type cuttings, BAS 800H 25 g ai/ha); 9 in assay [5] (Wild type cuttings, BAS 800H 50 g ai/ha); 9 in assay [5] (Wild type cuttings, BAS 800H 100 g ai/ha); 9 in assay [5] (Wild type cuttings, BAS 800H 200 g ai/ha).
Regarding OXADIARGYL, the IC50 in assay [2] (Table 3b, SEQ ID NO 2, WT) came out at 1.17 nM.
